{"source": "patent US20240199587A1", "about": "“HETEROCYCLIC COMPOUNDS” (Hoffmann-La Roche Inc., priority 2021, published 2024)", "data": [{"target": "T1, MAGL (Homo sapiens, UniProt Q99685)", "T1 sequence (Q99685 1-303)": "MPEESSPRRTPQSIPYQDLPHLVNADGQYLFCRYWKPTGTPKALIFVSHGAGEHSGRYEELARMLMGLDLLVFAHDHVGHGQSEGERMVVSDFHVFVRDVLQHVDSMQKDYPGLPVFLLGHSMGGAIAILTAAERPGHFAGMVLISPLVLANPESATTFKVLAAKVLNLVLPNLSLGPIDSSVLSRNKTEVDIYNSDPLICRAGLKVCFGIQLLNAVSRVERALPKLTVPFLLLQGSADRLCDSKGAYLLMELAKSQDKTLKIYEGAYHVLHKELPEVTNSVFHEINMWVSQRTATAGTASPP", "experiment": "2-AG assay (MAGL inhibitory activity, hydrolysis of 2-arachidonoylglycerol to arachidonic acid followed by mass spectrometry)", "assay_type": "biochemical", "conditions": "8 μM 2-arachidonoylglycerol, 15 min pre-incubation, 30 min incubation at RT, RapidFire MS readout", "summary_of_the_method": "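Arachidonic acid released from 8 μM 2-arachidonoylglycerol was quantified by online SPE triple-quadrupole MS (negative ESI, 303.1→259.1), normalised to d8-arachidonic acid internal standard. Reaction ran 30 min at RT after 15 min RT compound pre-incubation with […] MAGL in TRIS/EDTA/Tween-20 buffer, 2.5% DMSO.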", "units": {"IC50": "nM"}, "values": [{"molecule": "O=C(N1CC(OCc2ccc(Cl)cc2F)C1)N1CC2(CC(n3cnc(C4CC4)c3)C2)C1", "note": "[Example 108, [3-[(4-chloro-2-fluoro-phenyl)methoxy]azetidin-1-yl]-[6-(4-cyclopropylimidazol-1-yl)-2-azaspiro[3.3]heptan-2-yl]methanone]", "IC50": 25}, {"molecule": "CS(=N)(=O)c1cc(F)ccc1CC1CC2(C1)CN(C(=O)N1CC3(CC(n4cnc(C5(O)CC5)n4)C3)C1)C2", "note": "(centres unmarked) [Example 354, [6-[[4-fluoro-2-(methylsulfonimidoyl)phenyl]methyl]-2-azaspiro[3.3]heptan-2-yl]-[6-[3-(1-hydroxycyclopropyl)-1,2,4-triazol-1-yl]-2-azaspiro[3.3]heptan-2-yl]methanone]", "IC50": 19.2}, {"molecule": "O=C(N1CC2(CCC(Cc3ccc(F)cn3)CC2)C1)N1CC2(CC(c3ccc(C(F)(F)F)nc3)C2)C1", "note": "[Example 516, [7-[(5-fluoro-2-pyridyl)methyl]-2-azaspiro[3.5]nonan-2-yl]-[6-[6-(trifluoromethyl)-3-pyridyl]-2-azaspiro[3.3]heptan-2-yl]methanone]", "IC50": 699}, {"molecule": "O=C(N1CC2(CC(n3cnc(C4CC4)n3)C2)C1)N1CCC(OCC2(C(F)(F)F)CC2)C(F)(F)C1", "note": "(centres unmarked) [Example 150, [6-(3-cyclopropyl-1,2,4-triazol-1-yl)-2-azaspiro[3.3]heptan-2-yl]-[3,3-difluoro-4-[[1-(trifluoromethyl)cyclopropyl]methoxy]-1-piperidyl]methanone]", "IC50": 162}, {"molecule": "CS(=O)(=O)c1cc(F)ccc1O[C@H]1C[C@@H]2CN(C(=O)N3CC4(CC(n5cnc(C6CC6)n5)C4)C3)C[C@@H]2C1", "note": "[Example 123, [6-(3-cyclopropyl-1,2,4-triazol-1-yl)-2-azaspiro[3.3]heptan-2-yl]-[rac-(3aS,6aR)-5-(4-fluoro-2-methylsulfonyl-phenoxy)-3,3a,4,5,6,6a-hexahydro-1H-cyclopenta[c]pyrrol-2-yl]methanone]", "IC50": 41.9}, {"molecule": "NC(=O)[C@@H](c1ccc(F)cc1)N1CCN(C(=O)N2CC3(CC(n4cnc(C5CC5)n4)C3)C2)CC1", "note": "[Example 326, (2R)-2-[4-[6-(3-cyclopropyl-1,2,4-triazol-1-yl)-2-azaspiro[3.3]heptane-2-carbonyl]piperazin-1-yl]-2-(4-fluorophenyl)acetamide]", "IC50": 583}, {"molecule": "O=C(N1CC(Oc2ccc(Cl)cc2Cl)C1)N1CC2(CC(n3cnc(C4CC4)n3)C2)C1", "note": "[Example 98, (6-(3-cyclopropyl-1H-1,2,4-triazol-1-yl)-2-azaspiro[3.3]heptan-2-yl)(3-(2,4-dichlorophenoxy)azetidin-1-yl)methanone]", "IC50": 2.8}, {"molecule": "CS(=O)(=O)c1ccc(CC2CC3(C2)CN(C(=O)N2CC4(CC(n5cnc(C(F)(F)F)n5)C4)C2)C3)cc1", "note": "[Example 455, [6-[(4-methylsulfonylphenyl)methyl]-2-azaspiro[3.3]heptan-2-yl]-[6-[3-(trifluoromethyl)-1,2,4-triazol-1-yl]-2-azaspiro[3.3]heptan-2-yl]methanone]", "IC50": 1.25}, {"molecule": "CCCS(=O)(=O)N1CC2(CN(C(=O)N3CC4(CC(n5cnc(C6CC6)n5)C4)C3)C2)C1", "note": "[Example 320, [6-(3-cyclopropyl-1,2,4-triazol-1-yl)-2-azaspiro[3.3]heptan-2-yl]-(2-propylsulfonyl-2,6-diazaspiro[3.3]heptan-6-yl)methanone]", "IC50": 314}, {"molecule": "O=C(N1CC2(CC(Cc3ccc(F)cc3F)C2)C1)N1CC2(CC(c3ccc(S(=O)(=O)C(F)(F)F)cc3)C2)C1", "note": "[Example 345, [6-[(2,4-difluorophenyl)methyl]-2-azaspiro[3.3]heptan-2-yl]-[6-[4-(trifluoromethylsulfonyl)phenyl]-2-azaspiro[3.3]heptan-2-yl]methanone]", "IC50": 28.9}, {"molecule": "O=C(N1CC(Oc2cnc(Cl)c(C3CC3)c2)C1)N1CC2(CC(n3cnc(C4CC4)n3)C2)C1", "note": "[Example 254, [3-[(6-chloro-5-cyclopropyl-3-pyridyl)oxy]azetidin-1-yl]-[6-(3-cyclopropyl-1,2,4-triazol-1-yl)-2-azaspiro[3.3]heptan-2-yl]methanone]", "IC50": 17}, {"molecule": "O=C(N1CC(c2nc(C3(C(F)(F)F)CC3)no2)C1)N1CC2(CC(n3cnc(C4CC4)n3)C2)C1", "note": "[Example 166, [6-(3-cyclopropyl-1,2,4-triazol-1-yl)-2-azaspiro[3.3]heptan-2-yl]-[3-[3-[1-(trifluoromethyl)cyclo-propyl]-1,2,4-oxadiazol-5-yl]azetidin-1-yl]methanone]", "IC50": 97.9}, {"molecule": "CC1(NS(=O)(=O)N2CC3(CN(C(=O)N4CC5(CC(n6cnc(C7CC7)n6)C5)C4)C3)C2)CC1", "note": "[Example 269, 6-[6-(3-cyclopropyl-1,2,4-triazol-1-yl)-2-azaspiro[3.3]heptane-2-carbonyl]-N-(1-methylcyclopropyl)-2,6-diazaspiro[3.3]heptane-2-sulfonamide]", "IC50": 32.2}, {"molecule": "O=C(N1CC(C#Cc2ccc(OC(F)F)cc2)C1)N1CC2(CC(n3cnc(C4CC4)n3)C2)C1", "note": "[Example 92, [6-(3-cyclopropyl-1,2,4-triazol-1-yl)-2-azaspiro[3.3]heptan-2-yl]-[3-[2-[4-(difluoromethoxy)phenyl]ethynyl]azetidin-1-yl]methanone]", "IC50": 11.7}, {"molecule": "CC(C)(C)c1nc(-c2ccc(C(=O)N3CC4(CC(n5cnc(C#N)n5)C4)C3)cc2)no1", "note": "[Example 20, 1-[2-[4-(5-tert-butyl-1,2,4-oxadiazol-3-yl)benzoyl]-2-azaspiro[3.3]heptan-6-yl]-1,2,4-triazole-3-carbonitrile]", "IC50": 82}, {"molecule": "COc1cc(C(F)(F)F)ccc1O[C@H]1C[C@@H]2CN(C(=O)N3CC4(CC(n5cnc(C6CC6)n5)C4)C3)C[C@@H]2C1", "note": "[Example 116, [6-(3-cyclopropyl-1,2,4-triazol-1-yl)-2-azaspiro[3.3]heptan-2-yl]-[rac-(3aS,6aR)-5-[2-methoxy-4-(trifluoromethyl)phenoxy]-3,3a,4,5,6,6a-hexahydro-1H-cyclopenta[c]pyrrol-2-yl]methanone]", "IC50": 2.7}, {"molecule": "CC1(Cc2nnc(-c3ccc(C4CN(C(=O)N5CC6(CC(n7cnc(C8CC8)n7)C6)C5)C4)cc3)[nH]2)CC1", "note": "[Example 448, [6-(3-cyclopropyl-1,2,4-triazol-1-yl)-2-azaspiro[3.3]heptan-2-yl]-[3-[4-[5-[(1-methylcyclopropyl)methyl]-4H-1,2,4-triazol-3-yl]phenyl]azetidin-1-yl]methanone]", "IC50": 0.93}, {"molecule": "O=C(N1CC(c2ccc(C3(C(F)(F)F)CC3)cc2)C1)N1CC2(CC(n3cnc(C4CC4)c3)C2)C1", "note": "[Example 48, [6-(4-cyclopropylimidazol-1-yl)-2-azaspiro[3.3]heptan-2-yl]-[3-[4-[1-(trifluoromethyl)cyclo-propyl]phenyl]azetidin-1-yl]methanone]", "IC50": 0.2}, {"molecule": "O=C(C1CC(OCC2(C(F)(F)F)CC2)C1)N1CC2(CC(n3cnc(C4CC4)n3)C2)C1", "note": "(centres unmarked) [compound 176, [6-(3-cyclopropyl-1,2,4-triazol-1-yl)-2-azaspiro[3.3]heptan-2-yl]-[3-[[1-(trifluoromethyl)cyclopropyl]methoxy]cyclobutyl]methanone]", "IC50": 1440}, {"molecule": "O=C(N1CC2(CC(Cc3cnc(C(F)(F)F)cn3)C2)C1)N1CC2(CC(c3ccc(C(F)(F)F)nc3)C2)C1", "note": "[Example 519, [6-[[5-(trifluoromethyl)pyrazin-2-yl]methyl]-2-azaspiro[3.3]heptan-2-yl]-[6-[6-(trifluoromethyl)-3-pyridyl]-2-azaspiro[3.3]heptan-2-yl]methanone]", "IC50": 154}, {"molecule": "Cc1cc(C(=O)N2CC3(CC(n4ccc(C5CC5)n4)C3)C2)cnc1OCC1(C(F)(F)F)CC1", "note": "[Example 151, [6-(3-cyclopropylpyrazol-1-yl)-2-azaspiro[3.3]heptan-2-yl]-[5-methyl-6-[[1-(trifluoromethyl)cyclopropyl]methoxy]-3-pyridyl]methanone]", "IC50": 67.1}, {"molecule": "O=C(N1CC(Oc2cncc(C3CC3)c2Cl)C1)N1CC2(CC(n3cnc(C4CC4)n3)C2)C1", "note": "[Example 235, [3-[(4-chloro-5-cyclopropyl-3-pyridyl)oxy]azetidin-1-yl]-[6-(3-cyclopropyl-1,2,4-triazol-1-yl)-2-azaspiro[3.3]heptan-2-yl]methanone]", "IC50": 6}, {"molecule": "O=C(N1CC(OCc2ccc(S(F)(F)(F)(F)F)cc2)C1)N1CC2(CC(n3cnc(C4CC4)c3)C2)C1", "note": "[Example 104, [6-(4-cyclopropylimidazol-1-yl)-2-azaspiro[3.3]heptan-2-yl]-[3-[[4-(pentafluoro-λ^6-sulfanyl)phenyl]methoxy]azetidin-1-yl]methanone]", "IC50": 9.7}, {"molecule": "O=C(N1CC(C23CC(NCC4(C(F)(F)F)CC4)(C2)C3)C1)N1CC2(CC(n3cnc(C4CC4)n3)C2)C1", "note": "[Example 445, [6-(3-cyclopropyl-1,2,4-triazol-1-yl)-2-azaspiro[3.3]heptan-2-yl]-[3-[3-[[1-(trifluoromethyl)cyclopropyl]methylamino]-1-bicyclo[1.1.1]pentanyl]azetidin-1-yl]methanone]", "IC50": 0.3}, {"molecule": "O=C(N1CC2(CC(Nc3ccc(C(F)(F)F)nn3)C2)C1)N1CC2(CC(n3cnc(C4CC4)n3)C2)C1", "note": "[Example 267, [6-(3-cyclopropyl-1,2,4-triazol-1-yl)-2-azaspiro[3.3]heptan-2-yl]-[6-[[6-(trifluoromethyl)pyridazin-3-yl]amino]-2-azaspiro[3.3]heptan-2-yl]methanone]", "IC50": 30.7}, {"molecule": "O=C(N1CC2(CC(n3cnc(C4CC4)n3)C2)C1)N1CC2(CC(n3cnc(C(F)(F)F)n3)C2)C1", "note": "[Example 449, [6-(3-cyclopropyl-1,2,4-triazol-1-yl)-2-azaspiro[3.3]heptan-2-yl]-[6-[3-(trifluoromethyl)-1,2,4-triazol-1-yl]-2-azaspiro[3.3]heptan-2-yl]methanone]", "IC50": 1.37}]}]}
